Assay results: ChEMBL document CHEMBL4706702 (Bioorg Med Chem, 2021)
Active and inactive are the calls of the source. No cut-off for these calls is given here.

Key:
Mushroom tyrosinase [1] = biological target: T1, Mushroom tyrosinase (Agaricus bisporus, UniProt O42713+Q00024+C7FF04+C7FF05); assay: Inhibition of mushroom tyrosinase using L-DOPA as substrate preincubated for 20 mins followed by substrate addition and measured after 10 mins
[2] = Antioxidant activity assessed as inhibition of DPPH radical activity at 100 uM incubated for 20 mins by spectrophotometric method relative to control; assay type: functional
[3] = biological target: T2, Mushroom tyrosinase (Agaricus bisporus) (UniProt O42713+Q00024+C7FF04+C7FF05); assay: Inhibition of mushroom tyrosinase using L-DOPA as substrate at 10 uM preincubated for 20 mins followed by substrate addition and measured after 10 mins relative to control; conditions: time 30.0 min
[4] = biological target: T2, Mushroom tyrosinase (Agaricus bisporus); assay: Inhibition of mushroom tyrosinase using L-DOPA as substrate at 0.5 uM preincubated for 20 mins followed by substrate addition and measured after 10 mins relative to control; conditions: time 30.0 min
[5] = biological target: T2, Mushroom tyrosinase (Agaricus bisporus); assay: Potency index, ratio of kojic acid IC50 to test compound IC50 for inhibition of mushroom tyrosinase using L-DOPA as substrate
B16-F10 [6] = assay: Cytotoxicity against mouse B16F10 cells assessed as reduction in cell viability at 8 uM after 48 hrs by MTT assay; assay type: cell-based; conditions: b16-f10, 48 h
[7] = biological target: T3, Tyrosinase (Mus musculus) (UniProt P11344); assay: Inhibition of tyrosinase in mouse B16F10 cells assessed melanin level at 8 uM after 24 hrs relative to control; assay type: cell-based; parameters: scale not given: the % may be the effect or the level left; conditions: B16-F10
T3 sequence (whole entry): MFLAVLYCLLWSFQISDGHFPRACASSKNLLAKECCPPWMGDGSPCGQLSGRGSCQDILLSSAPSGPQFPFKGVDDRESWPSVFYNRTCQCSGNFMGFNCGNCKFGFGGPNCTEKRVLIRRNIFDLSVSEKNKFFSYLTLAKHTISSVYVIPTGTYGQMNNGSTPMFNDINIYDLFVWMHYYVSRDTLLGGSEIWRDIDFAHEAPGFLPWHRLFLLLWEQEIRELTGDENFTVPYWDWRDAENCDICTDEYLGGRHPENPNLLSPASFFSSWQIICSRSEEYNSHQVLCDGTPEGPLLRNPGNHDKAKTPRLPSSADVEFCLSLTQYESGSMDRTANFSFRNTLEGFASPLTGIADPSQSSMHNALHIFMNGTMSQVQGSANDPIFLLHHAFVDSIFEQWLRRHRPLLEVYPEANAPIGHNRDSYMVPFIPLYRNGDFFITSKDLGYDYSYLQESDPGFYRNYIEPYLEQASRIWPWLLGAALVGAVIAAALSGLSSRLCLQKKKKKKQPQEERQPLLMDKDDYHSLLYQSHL

B16-F10 [8] = assay: Cytotoxicity against mouse B16F10 cells assessed as reduction in cell viability at 2 to 4 uM after 48 hrs by MTT assay; assay type: cell-based; conditions: b16-f10, 48 h, dose 2-4 µM
[9] = biological target: T3, Tyrosinase (Mus musculus); assay: Inhibition of tyrosinase in mouse B16F10 cells assessed reduction in melanin level at 2 uM after 24 hrs; assay type: cell-based; conditions: B16-F10
[10] = test system: O=c1cc(CSc2nc3ccccc3c(=O)n2Cc2ccccn2)occ1O; assay: Uncompetitive inhibition of mushroom tyrosinase assessed as Km at 2.5 uM using L-DOPA as substrate preincubated for 10 mins followed by substrate addition and measured after 10 mins by Lineweaver-Burk plot analysis (reference value: […] uM); conditions: Agaricus bisporus, time 20.0 min
[11] = test system: O=c1cc(CSc2nc3ccccc3c(=O)n2Cc2ccccn2)occ1O; assay: Uncompetitive inhibition of mushroom tyrosinase assessed as Km at 10 uM using L-DOPA as substrate preincubated for 10 mins followed by substrate addition and measured after 10 mins by Lineweaver-Burk plot analysis (reference value: […] uM); conditions: Agaricus bisporus, time 20.0 min
[12] = test system: O=c1cc(CSc2nc3ccccc3c(=O)n2Cc2ccccn2)occ1O; assay: Uncompetitive inhibition of mushroom tyrosinase assessed as Vmax at 2.5 uM using L-DOPA as substrate preincubated for 10 mins followed by substrate addition and measured after 10 mins by Lineweaver-Burk plot analysis (reference value: […] OD/min); conditions: Agaricus bisporus, time 20.0 min
[13] = test system: O=c1cc(CSc2nc3ccccc3c(=O)n2Cc2ccccn2)occ1O; assay: Uncompetitive inhibition of mushroom tyrosinase assessed as Vmax at 0.5 uM using L-DOPA as substrate preincubated for 10 mins followed by substrate addition and measured after 10 mins by Lineweaver-Burk plot analysis (reference value: […] OD/min); conditions: Agaricus bisporus, time 20.0 min
[14] = test system: O=c1cc(CSc2nc3ccccc3c(=O)n2Cc2ccccn2)occ1O; assay: Uncompetitive inhibition of mushroom tyrosinase assessed as Vmax at 10 uM using L-DOPA as substrate preincubated for 10 mins followed by substrate addition and measured after 10 mins by Lineweaver-Burk plot analysis (reference value: […] OD/min); conditions: Agaricus bisporus, time 20.0 min
[15] = test system: O=c1cc(CSc2nc3ccccc3c(=O)n2Cc2ccccn2)occ1O; assay: Uncompetitive inhibition of mushroom tyrosinase assessed as Km at 0.5 uM using L-DOPA as substrate preincubated for 10 mins followed by substrate addition and measured after 10 mins by Lineweaver-Burk plot analysis (reference value: […] uM); conditions: Agaricus bisporus, time 20.0 min
Mushroom tyrosinase [16] = biological target: T1, Mushroom tyrosinase; assay: Inhibition of mushroom tyrosinase using L-DOPA as substrate preincubated for 10 mins followed by substrate addition and measured after 20 mins

Sequence of Mushroom tyrosinase (Agaricus bisporus) (from UniProt O42713+Q00024+C7FF04+C7FF05) (C7FF05 whole entry, looked up): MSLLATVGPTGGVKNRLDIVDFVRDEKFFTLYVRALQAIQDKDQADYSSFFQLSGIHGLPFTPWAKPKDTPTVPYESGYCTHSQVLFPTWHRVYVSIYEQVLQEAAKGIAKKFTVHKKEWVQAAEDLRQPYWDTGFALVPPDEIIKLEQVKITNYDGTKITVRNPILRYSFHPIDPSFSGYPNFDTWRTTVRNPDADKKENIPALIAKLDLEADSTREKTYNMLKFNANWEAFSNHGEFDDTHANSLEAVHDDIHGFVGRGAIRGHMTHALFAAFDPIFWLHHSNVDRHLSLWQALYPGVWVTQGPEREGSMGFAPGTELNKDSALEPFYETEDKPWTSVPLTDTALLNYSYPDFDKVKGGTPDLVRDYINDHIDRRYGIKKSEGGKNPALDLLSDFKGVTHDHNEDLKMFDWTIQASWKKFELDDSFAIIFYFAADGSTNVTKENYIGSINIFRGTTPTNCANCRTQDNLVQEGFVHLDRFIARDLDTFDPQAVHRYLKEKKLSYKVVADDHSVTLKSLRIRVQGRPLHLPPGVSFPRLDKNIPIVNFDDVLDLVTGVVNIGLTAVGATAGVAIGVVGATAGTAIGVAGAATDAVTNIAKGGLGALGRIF
Sequence of Mushroom tyrosinase (Agaricus bisporus) (from UniProt O42713+Q00024+C7FF04+C7FF05) (C7FF04 whole entry, looked up): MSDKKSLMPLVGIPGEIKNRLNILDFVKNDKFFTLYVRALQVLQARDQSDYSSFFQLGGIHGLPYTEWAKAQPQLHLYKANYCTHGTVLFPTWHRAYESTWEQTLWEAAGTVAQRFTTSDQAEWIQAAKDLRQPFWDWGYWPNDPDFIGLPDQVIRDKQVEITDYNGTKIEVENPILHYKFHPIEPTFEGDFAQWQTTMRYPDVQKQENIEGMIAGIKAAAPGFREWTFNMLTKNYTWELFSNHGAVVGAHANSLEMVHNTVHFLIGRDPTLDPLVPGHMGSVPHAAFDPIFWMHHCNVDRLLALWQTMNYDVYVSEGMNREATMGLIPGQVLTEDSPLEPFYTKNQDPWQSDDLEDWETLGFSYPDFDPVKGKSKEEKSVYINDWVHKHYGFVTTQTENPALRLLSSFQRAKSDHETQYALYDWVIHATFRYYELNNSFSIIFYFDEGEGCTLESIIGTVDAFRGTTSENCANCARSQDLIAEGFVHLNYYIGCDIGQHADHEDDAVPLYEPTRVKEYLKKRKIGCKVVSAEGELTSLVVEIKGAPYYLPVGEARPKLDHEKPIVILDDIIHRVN
Sequence of Mushroom tyrosinase (Agaricus bisporus) (from UniProt O42713+Q00024+C7FF04+C7FF05) (Q00024 whole entry, looked up): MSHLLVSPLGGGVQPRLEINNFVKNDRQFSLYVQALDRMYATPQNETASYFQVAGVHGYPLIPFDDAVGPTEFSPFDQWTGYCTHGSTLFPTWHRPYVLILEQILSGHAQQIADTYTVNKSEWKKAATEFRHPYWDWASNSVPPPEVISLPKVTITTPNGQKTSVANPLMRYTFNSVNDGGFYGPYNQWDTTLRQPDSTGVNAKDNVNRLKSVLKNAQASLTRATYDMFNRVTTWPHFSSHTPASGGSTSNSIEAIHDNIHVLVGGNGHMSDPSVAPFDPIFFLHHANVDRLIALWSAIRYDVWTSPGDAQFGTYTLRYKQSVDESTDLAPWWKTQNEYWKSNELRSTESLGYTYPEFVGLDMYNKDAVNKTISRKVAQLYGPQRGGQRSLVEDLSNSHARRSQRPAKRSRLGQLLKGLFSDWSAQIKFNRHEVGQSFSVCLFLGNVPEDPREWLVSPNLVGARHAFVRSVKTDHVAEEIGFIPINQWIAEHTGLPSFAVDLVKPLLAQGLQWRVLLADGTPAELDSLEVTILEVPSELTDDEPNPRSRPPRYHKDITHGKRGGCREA
Sequence of Mushroom tyrosinase (Agaricus bisporus) (from UniProt O42713+Q00024+C7FF04+C7FF05) (O42713 whole entry, looked up): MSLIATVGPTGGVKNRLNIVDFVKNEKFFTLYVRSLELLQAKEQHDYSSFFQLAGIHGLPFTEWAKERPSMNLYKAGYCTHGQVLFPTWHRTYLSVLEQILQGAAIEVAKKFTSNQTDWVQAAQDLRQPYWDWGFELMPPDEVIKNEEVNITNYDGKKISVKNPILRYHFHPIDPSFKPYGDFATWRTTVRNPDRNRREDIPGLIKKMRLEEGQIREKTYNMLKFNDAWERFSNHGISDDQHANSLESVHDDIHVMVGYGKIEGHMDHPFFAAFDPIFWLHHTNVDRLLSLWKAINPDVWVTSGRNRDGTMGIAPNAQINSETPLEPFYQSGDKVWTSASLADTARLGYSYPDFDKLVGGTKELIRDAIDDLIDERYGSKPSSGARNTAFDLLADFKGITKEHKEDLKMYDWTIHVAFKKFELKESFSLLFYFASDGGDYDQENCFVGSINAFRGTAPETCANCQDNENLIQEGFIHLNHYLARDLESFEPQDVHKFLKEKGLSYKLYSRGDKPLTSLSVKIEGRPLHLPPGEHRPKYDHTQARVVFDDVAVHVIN

Work on `COc1ccc(-n2c(SCc3cc(=O)c(O)co3)nc3ccccc3c2=O)cc1` yielded an IC50 (Mushroom tyrosinase [1]) of 2400 nM, an inhibition [2] of 27.1% and an inhibition [3] of 83.5%. The inhibition [4] was 22.1%.

`O=c1cc(CSc2nc3ccccc3c(=O)n2C2CC2)occ1O` gave an IC50 (Mushroom tyrosinase [1]) of 2100 nM, an inhibition [2] of 24.5% and an inhibition [3] of 82.5%. For the same compound, the inhibition [4] was 23.6% and the Ratio IC50 [5] was 4.

With `COc1ccc(-n2c(SCc3cc(=O)c(O)co3)nc3ccccc3c2=O)cc1OC` the IC50 (Mushroom tyrosinase [1]) was 2120 nM, the inhibition [2] was 24.5% and the inhibition [3] was 98.8%. For the same compound, the inhibition [4] was 40.1%.

Work on `O=c1cc(CSc2nc3ccccc3c(=O)n2Cc2ccc(F)cc2)occ1O` yielded an IC50 (Mushroom tyrosinase [1]) of 1560 nM, an inhibition [2] of 32.6% and an inhibition [3] of 92%. It also gave an inhibition [4] of 32.4%.

With `O=c1cc(CSc2nc3ccccc3c(=O)n2Cc2ccccn2)occ1O` the IC50 (Mushroom tyrosinase [1]) was 460 nM, the Activity (B16-F10 [6]) was “Toxic” and the Activity [7] was 75%. The Activity (B16-F10 [8]) was “Non-Toxic”, the inhibition [9] was “Active” and the inhibition [2] was 42.6%. It also gave an inhibition [3] of 90.3% and an inhibition [4] of 54.5%.

For “Mushroom tyrosinase (Agaricus bisporus) (from UniProt O42713+Q00024+C7FF04+C7FF05)”, the Km [10] was 1.15 µM, the Km [11] was 0.92 µM and the Vmax (optical density/minute) [12] was 0.15. The Vmax (optical density/minute) [13] was 0.27, the Vmax (optical density/minute) [14] was 0.081 and the Km [15] was 1.68 µM.

In the case of `O=c1cc(CSc2nc3ccccc3c(=O)n2-c2ccc(Br)cc2)occ1O`, the IC50 (Mushroom tyrosinase [1]) is reported as 1480 nM, the inhibition [2] is reported as 33.3% and the inhibition [3] is reported as 71.7%. The inhibition [4] was 40.1%.

For `CC(C)n1c(SCc2cc(=O)c(O)co2)nc2ccccc2c1=O`, the IC50 (Mushroom tyrosinase [1]) was 1440 nM, the inhibition [2] was 32.6% and the inhibition [3] was 91.2%. It also gave an inhibition [4] of 38.6%.

Compound `C=CCn1c(SCc2cc(=O)c(O)co2)nc2ccccc2c1=O` has an IC50 (Mushroom tyrosinase [1]) of 1560 nM, an inhibition [3] of 92% and an inhibition [4] of 32.4%.

In the case of `O=c1c(O)c(-c2ccc(O)c(O)c2)oc2cc(O)cc(O)c12`, the inhibition [2] is reported as 4.62%.

With `O=C(Nn1c(-c2ccccc2O)nc2ccccc2c1=O)c1ccco1` the IC50 (Mushroom tyrosinase [16]) was 499 nM.

`O=c1cc(CSc2nc3ccccc3c(=O)n2-c2ccccc2)occ1O` showed an IC50 (Mushroom tyrosinase [1]) of 1880 nM, an inhibition [2] of 31.4% and an inhibition [3] of 91.7%. For the same compound, the inhibition [4] was 43%.

`O=c1cc(CSc2nc3ccccc3c(=O)n2Cc2ccccc2)occ1O` gave an IC50 (Mushroom tyrosinase [1]) of 1420 nM, an inhibition [2] of 27.9% and an inhibition [3] of 94.1%. It also gave an inhibition [4] of 42.5%.

Compound `Cc1ccc(-n2c(SCc3cc(=O)c(O)co3)nc3ccccc3c2=O)cc1` has an IC50 (Mushroom tyrosinase [1]) of 5320 nM, an inhibition [2] of 33.3% and an inhibition [3] of 77.3%. The inhibition [4] was 11.4%.

`O=c1cc(CSc2nc3ccccc3c(=O)n2Cc2ccncc2)occ1O` gave an IC50 (Mushroom tyrosinase [1]) of 2200 nM, an inhibition [2] of 39% and an inhibition [3] of 88.5%. It also gave an inhibition [4] of 15.9%.

In the case of `CCCn1c(SCc2cc(=O)c(O)co2)nc2ccccc2c1=O`, the IC50 (Mushroom tyrosinase [1]) is reported as 2310 nM, the inhibition [2] is reported as 22.6% and the inhibition [3] is reported as 90.5%. It also gave an inhibition [4] of 24.5%.

Compound `COc1cccc(C(=O)NN2C(=O)c3ccccc3NC2c2ccc(F)cc2)c1` (configuration not stated) has an IC50 (Mushroom tyrosinase [16]) of 6 nM.

In the case of `O=c1cc(CSc2nc3ccccc3c(=O)n2-c2ccccn2)occ1O`, the IC50 (Mushroom tyrosinase [1]) is reported as 500 nM, the Activity (B16-F10 [6]) is reported as “Toxic” and the Activity [7] is reported as 69%. The Activity (B16-F10 [8]) was “Non-Toxic”, the inhibition [9] was “Active” and the inhibition [2] was 33.8%. The inhibition [3] was 90.9% and the inhibition [4] was 50.5%.

With `O=c1cc(CSc2nc3ccccc3c(=O)n2-c2ccc(Cl)cc2)occ1O` the IC50 (Mushroom tyrosinase [1]) was 500 nM, the inhibition [2] was 32.6% and the inhibition [3] was 94.2%. The inhibition [4] was 49.5%.
